From ChEMBL document CHEMBL5634087, “Novel 5-aminopyrazoles endowed with anti-angiogenetic properties: Design, synthesis and biological evaluation” (Eur J Med Chem, 2023)
Active and inactive are the calls of the source. The rule behind the calls is not given here.

Experiments:
SK-MEL-28 = assay: Antiproliferative activity against human SK-MEL-28 cells assessed as growth rate at 10 uM incubated for 48 hrs by MTT assay relative to control; type: functional; conditions: read-out: Activity
A549 = assay: Antiproliferative activity against human A549 cells assessed as growth rate at 10 uM incubated for 48 hrs by MTT assay relative to control; type: functional; conditions: read-out: Activity
MDA-MB-231 = assay: Antiproliferative activity against human MDA-MB-231 cells assessed as growth rate at 10 uM incubated for 48 hrs by MTT assay relative to control; type: functional; conditions: read-out: Activity
HUVEC [1] = assay: Antiangiogenic activity in confluent VEGF stimulated HUVEC cells assessed as inhibition of cell migration at 20 uM incubated for 24 to 48 hrs by Hoechst 33342 staining based wound healing assay; type: functional; conditions: Homo sapiens, time 24-48 hrs
HFF [2] = assay: Antiangiogenic activity in confluent HFF cells assessed as inhibition of cell migration at 20 uM incubated for 24 to 48 hrs by Hoechst 33342 staining based wound healing assay relative to control; type: functional, Homo sapiens; parameters: scale not given: the % may be the effect or the level left; conditions: time 24-48 hrs
[3] = Cytotoxicity against human GM06114 cells assessed as growth rate at 10 uM incubated for 48 hrs by MTT assay relative to control; type: toxicity, cell-based; conditions: gm06114, 48 h
HepG2 = assay: Antiproliferative activity against human HepG2 cells assessed as growth rate at 10 uM incubated for 48 hrs by MTT assay relative to control; type: functional; conditions: read-out: Activity
SK-OV-3 = assay: Antiproliferative activity against human SK-OV-3 cells assessed as growth rate at 10 uM incubated for 48 hrs by MTT assay relative to control; type: functional; conditions: read-out: Activity
HeLa = assay: Antiproliferative activity against human HeLa cells assessed as growth rate at 10 uM incubated for 48 hrs by MTT assay relative to control; type: functional; conditions: read-out: Activity
[4] = molecular target: Mitogen-activated protein kinase; ERK1/ERK2 (Homo sapiens) (UniProt P27361+P28482); assay: Inhibition of ERK1/2 phosphorylation in serum starved bFGF stimulated HFF cells assessed as residual phosphorylated ERK1/2 level at 20 uM preincubated for 10 mins followed by bFGF addition and measured after 20 mins by Western blotting analysis relative to control; type: cell-based; conditions: time 30.0 min
Sequence of Mitogen-activated protein kinase; ERK1/ERK2 (Homo sapiens) (P27361 whole entry, looked up): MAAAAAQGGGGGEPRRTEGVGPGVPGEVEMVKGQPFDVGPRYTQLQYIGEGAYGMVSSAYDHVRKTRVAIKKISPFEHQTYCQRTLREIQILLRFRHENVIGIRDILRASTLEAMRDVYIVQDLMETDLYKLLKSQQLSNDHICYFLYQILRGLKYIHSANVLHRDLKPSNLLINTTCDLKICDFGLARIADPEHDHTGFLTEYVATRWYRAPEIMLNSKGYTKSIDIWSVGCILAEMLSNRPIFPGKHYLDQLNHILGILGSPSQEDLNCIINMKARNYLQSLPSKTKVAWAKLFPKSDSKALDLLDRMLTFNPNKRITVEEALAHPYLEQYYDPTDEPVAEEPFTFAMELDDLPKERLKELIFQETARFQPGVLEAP
Sequence of Mitogen-activated protein kinase; ERK1/ERK2 (Homo sapiens) (P28482 whole entry, looked up): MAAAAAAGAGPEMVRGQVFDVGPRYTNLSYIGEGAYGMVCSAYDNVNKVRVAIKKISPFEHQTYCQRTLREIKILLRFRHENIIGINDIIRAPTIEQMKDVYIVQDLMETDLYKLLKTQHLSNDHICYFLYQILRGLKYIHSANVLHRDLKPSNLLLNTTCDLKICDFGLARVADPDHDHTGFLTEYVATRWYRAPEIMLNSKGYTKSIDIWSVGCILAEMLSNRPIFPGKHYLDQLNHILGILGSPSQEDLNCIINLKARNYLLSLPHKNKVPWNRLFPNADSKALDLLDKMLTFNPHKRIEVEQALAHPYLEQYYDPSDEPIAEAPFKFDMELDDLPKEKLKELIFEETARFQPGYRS

[5] = molecular target: RAC-alpha serine/threonine-protein kinase (Homo sapiens) (UniProt P31749); assay: Inhibition of AKT phosphorylation in serum starved bFGF stimulated HFF cells at 20 uM preincubated for 10 mins followed by bFGF addition and measured after 20 mins by Western blotting analysis; type: cell-based; conditions: time 30.0 min
Sequence of RAC-alpha serine/threonine-protein kinase (Homo sapiens) (P31749 whole entry): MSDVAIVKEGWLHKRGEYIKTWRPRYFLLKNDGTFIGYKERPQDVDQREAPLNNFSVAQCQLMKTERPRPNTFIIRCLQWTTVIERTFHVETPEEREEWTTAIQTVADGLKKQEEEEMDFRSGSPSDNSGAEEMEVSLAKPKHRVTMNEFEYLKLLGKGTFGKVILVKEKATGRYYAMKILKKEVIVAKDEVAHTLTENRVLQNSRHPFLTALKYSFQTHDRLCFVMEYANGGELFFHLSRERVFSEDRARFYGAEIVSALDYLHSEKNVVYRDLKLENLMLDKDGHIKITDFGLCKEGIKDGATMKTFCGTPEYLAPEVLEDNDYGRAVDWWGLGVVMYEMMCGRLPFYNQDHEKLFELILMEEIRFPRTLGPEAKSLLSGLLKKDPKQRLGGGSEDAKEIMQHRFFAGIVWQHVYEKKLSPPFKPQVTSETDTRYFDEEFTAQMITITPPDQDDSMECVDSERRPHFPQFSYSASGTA

SK-BR-3 = assay: Antiproliferative activity against human SK-BR-3 cells assessed as growth rate at 10 uM incubated for 48 hrs by MTT assay relative to control; type: functional; conditions: read-out: Activity
MCF7 = assay: Antiproliferative activity against human MCF7 cells assessed as growth rate at 10 uM incubated for 48 hrs by MTT assay relative to control; type: functional; conditions: read-out: Activity
HFF [6] = assay: Antiangiogenic activity in confluent HFF cells assessed as inhibition of cell migration at 20 uM incubated for 24 to 48 hrs by Hoechst 33342 staining based wound healing assay; type: functional; conditions: Homo sapiens, time 24-48 hrs
[7] = molecular target: RAC-alpha serine/threonine-protein kinase (Homo sapiens) (UniProt P31749); assay: Inhibition of AKT phosphorylation in serum starved VEGF stimulated HUVEC cells at 20 uM preincubated for 10 mins followed by VEGF addition and measured after 20 mins by Western blotting analysis relative to control; type: cell-based; conditions: time 30.0 min
HFF [8] = assay: Antiangiogenic activity in confluent HFF cells assessed as relative migration rate at 20 uM incubated for 48 hrs by Hoechst 33342 staining based wound healing assay relative to control; type: functional, Homo sapiens
[9] = molecular target: RAC-alpha serine/threonine-protein kinase (Homo sapiens) (UniProt P31749); assay: Inhibition of AKT phosphorylation in serum starved bFGF stimulated HFF cells assessed as residual activity at 20 uM preincubated for 10 mins followed by bFGF addition and measured after 20 mins by Western blotting analysis relative to control; type: cell-based; conditions: time 30.0 min
HFF [10] = assay: Antiangiogenic activity in confluent HFF cells assessed as relative migration rate at 20 uM incubated for 24 hrs by Hoechst 33342 staining based wound healing assay relative to control; type: functional, Homo sapiens
HUVEC [11] = assay: Antiangiogenic activity in confluent VEGF stimulated HUVEC cells assessed as relative cell migration rate at 20 uM incubated for 24 hrs by Hoechst 33342 staining based wound healing assay relative to control; type: functional, Homo sapiens

Structure (SMILES) | Activity [4] [%] | inhibition [5] | inhibition [7] [%] | Activity [9] [%] | growth at 10 µM (SK-MEL-28) [%] | growth at 10 µM (A549) [%] | growth at 10 µM (MDA-MB-231) [%] | Activity (HUVEC [1]) | Activity (HFF [2]) [%] | Activity [3] [%] | growth at 10 µM (HepG2) [%] | growth at 10 µM (SK-OV-3) [%] | growth at 10 µM (HeLa) [%] | growth at 10 µM (SK-BR-3) [%] | growth at 10 µM (MCF7) [%] | Activity (HFF [6]) | Activity (HFF [8]) [%] | Activity (HFF [10]) [%] | Activity (HUVEC [11]) [%]
CCCCC(O)Cn1nc(Nc2ccccc2)c(C(=O)OCC)c1N (stereo not drawn) | > 70 | Active | 43 |  | 117 | 130 | 131 | inactive |  | 97.13 | 102 | 118 | 115 | 109 | 147 | Active |  |  | 
CCOC(=O)c1c(Nc2ccc(C)cc2)nn(CC(OC(=O)Nc2cccc(C(F)(F)F)c2)c2ccccc2)c1N (stereo not drawn) | > 70 | inactive |  |  | 129 | 98.4 | 124 | inactive |  | 126.2 | 122 | 131 | 81.4 | 124 | 129 | inactive |  |  | 
CCCCC(Cn1nc(Nc2ccc(C)cc2)c(C(=O)OCC)c1N)OC(=O)Nc1cccc(C(F)(F)F)c1 (stereo not drawn) | > 70 | inactive |  |  | 123 | 112 | 149 | inactive |  | 99.16 | 111 | 129 | 97 | 110 | 143 | inactive |  |  | 
CCOC(=O)c1c(Nc2ccccc2)nn(CC(O)c2ccccc2)c1N (stereo not drawn) | > 70 |  |  | 27.3 | 114 | 133 | 131 | inactive |  | 96.04 | 108 | 118 | 111 | 112 | 150 |  | <55 | <40 | 
CCCCC(O)Cn1nc(Nc2cccc(Cl)c2)c(C(=O)OCC)c1N (stereo not drawn) | > 70 | inactive |  |  | 106 | 136 | 140 | inactive |  | 92.22 | 108 | 128 | 117 | 108 | 137 | Active |  |  | 
CCCCC(O)Cn1nc(Nc2ccccc2C)c(C(=O)OCC)c1N (stereo not drawn) | > 70 | Active | 43 |  | 121 | 127 | 127 | inactive |  | 114.61 | 99.9 | 115 | 99 | 110 | 118 | Active |  |  | 
CCCCC(O)Cn1nc(Nc2ccc(C)cc2)c(C(=O)OCC)c1N (stereo not drawn) | 50 | Active | 43 |  | 122 | 120 | 134 | inactive |  | 106.98 | 99 | 112 | 109 | 105 | 155 | Active | 14.34 |  | 

Now from value to compound, other results behind:

Activity [4] [%] | inhibition [5] | inhibition [7] [%] | Activity [9] [%] | Structure (SMILES) | growth at 10 µM (SK-MEL-28) [%] | growth at 10 µM (A549) [%] | growth at 10 µM (MDA-MB-231) [%] | Activity (HUVEC [1]) | Activity (HFF [2]) [%] | Activity [3] [%] | growth at 10 µM (HepG2) [%] | growth at 10 µM (SK-OV-3) [%] | growth at 10 µM (HeLa) [%] | growth at 10 µM (SK-BR-3) [%] | growth at 10 µM (MCF7) [%] | Activity (HFF [6]) | Activity (HFF [8]) [%] | Activity (HFF [10]) [%] | Activity (HUVEC [11]) [%]
> 70 | inactive |  |  | CCCCC(Cn1nc(Nc2ccccc2Cl)c(C(=O)OCC)c1N)OC(=O)Nc1cccc(C(F)(F)F)c1 (stereo not drawn) | 121 | 109 | 133 | inactive | <60 | 92.97 | 110 | 127 | 84.3 | 106 | 142 |  |  |  | 
> 70 | inactive |  |  | CCCCC(Cn1nc(Nc2ccccc2)c(C(=O)OCC)c1N)OC(=O)Nc1cccc(C(F)(F)F)c1 (stereo not drawn) | 123 | 98.1 | 126 | inactive |  | 96.63 | 107 | 113 | 85.8 | 112 | 141 | inactive |  |  | 
> 70 | inactive |  |  | CCCCC(Cn1nc(Nc2ccc(Cl)cc2)c(C(=O)OCC)c1N)OC(=O)Nc1cccc(C(F)(F)F)c1 (stereo not drawn) | 136 | 90.7 | 117 | inactive |  | 111.34 | 110 | 106 | 76.5 | 118 | 107 | inactive |  |  | 
> 70 | Active | 43 |  | CCCCC(O)Cn1nc(Nc2cccc(C)c2)c(C(=O)OCC)c1N (stereo not drawn) | 110 | 121 | 113 | inactive |  | 110.95 | 105 | 114 | 98.2 | 107 | 112 | Active |  | 10.57 | 
> 70 | inactive | 29.7 |  | CCCCC(Cn1nc(Nc2ccccc2C)c(C(=O)OCC)c1N)OC(=O)Nc1cccc(C(F)(F)F)c1 (stereo not drawn) | 141 | 81.7 | 117 | inactive |  | 110.05 | 106 | 103 | 58.5 | 124 | 110 | inactive |  |  | 
 |  | 59.1 | 55.9 | CCCC(O)Cn1ncc(C(=O)OCC)c1NC(=O)Nc1cccc(C(F)(F)F)c1 (stereo not drawn) |  |  |  | inactive |  |  |  |  |  |  |  |  | 31.37 | 40.31 | 56.54
> 70 |  | 21 | 27.3 | CCOC(=O)c1c(Nc2ccc(Cl)cc2)nn(CC(O)c2ccccc2)c1N (stereo not drawn) | 131 | 116 | 127 | inactive |  | 113.67 | 102 | 114 | 77.6 | 119 | 125 |  | <55 | <40 | 
> 70 |  | 16.2 | 27.3 | CCOC(=O)c1c(Nc2ccc(C)cc2)nn(CC(O)c2ccccc2)c1N (stereo not drawn) | 128 | 118 | 117 | inactive |  | 105.89 | 102 | 117 | 80 | 112 | 119 |  | <55 | <40 | 
> 70 |  | 34.2 |  | CCOC(=O)c1c(Nc2ccccc2)nn(CC(OC(=O)Nc2cccc(C(F)(F)F)c2)c2ccccc2)c1N (stereo not drawn) | 115 | 82.9 | 113 | inactive | <60 | 126.08 | 117 | 120 | 60.6 | 125 | 124 |  |  |  | 
